Source: ChEMBL document CHEMBL1133236, “Synthesis and antifungal activities of 5/6-arylamino-4,7-dioxobenzothiazoles” (Bioorg Med Chem Lett, 2000)
Values after ≈ are worked out from the molar mass of the structure shown.

What was measured:
Aspergillus niger = assay: Antifungal activity against Aspergillus niger KCTC 1231; type: functional
Pichia kudriavzevii = assay: Antifungal activity against Candida krusei ATCC 749; type: functional
Candida albicans = assay: Antifungal activity against Candida albicans ATCC 10231; type: functional
Candida tropicalis = assay: Antifungal activity against Candida tropicalis ATCC 28775; type: functional
HepG2 = assay: In vitro cytotoxicity against HepG2 cells (Hepatocarcinoma from ATCC) by MTT assay; type: functional, cell-based, Homo sapiens
[1] = Homo sapiens, HepG2, read-out: IC50

Compound | MIC (Aspergillus niger) [µg/mL] | MIC (Pichia kudriavzevii) [µg/mL] | MIC (Candida albicans) [µg/mL] | MIC (Candida tropicalis) [µg/mL] | IC50 (HepG2; [1]) [µg/mL] | IC50 (HepG2; hepg2) [µg/mL]
Cc1nc2c(s1)C(=O)C=C(Nc1cccc(Br)c1)C2=O | 12.5 (≈ 35.8 µM) | 6.3 (≈ 18 µM) | 12.5 (≈ 35.8 µM) | 0.8 (≈ 2.29 µM) | 15 (≈ 43 µM) | –
Cc1ccc(NC2=CC(=O)c3sc(C)nc3C2=O)cc1 | 12.5 (≈ 44 µM) | 1.6 (≈ 5.63 µM) | 6.3 (≈ 22.2 µM) | 1.6 (≈ 5.63 µM) | 1.2 (≈ 4.22 µM) | –
Cc1nc2c(s1)C(=O)C=C(Nc1ccc(OC(F)(F)F)cc1)C2=O | 6.3 (≈ 17.8 µM) | 25 (≈ 70.6 µM) | 12.5 (≈ 35.3 µM) | 0.8 (≈ 2.26 µM) | > 100 | –
O=C1C=C(Nc2ccc(Cl)cc2)C(=O)c2scnc21 | 12.5 (≈ 43 µM) | 25 (≈ 86 µM) | 12.5 (≈ 43 µM) | 12.5 (≈ 43 µM) | 16.4 (≈ 56.4 µM) | –
CCOc1ccc(NC2=CC(=O)c3sc(C)nc3C2=O)cc1 | 1.6 (≈ 5.09 µM) | 3.2 (≈ 10.2 µM) | 3.2 (≈ 10.2 µM) | 6.3 (≈ 20 µM) | 4.9 (≈ 15.6 µM) | –
CCCCCCc1ccc(NC2=CC(=O)c3sc(C)nc3C2=O)cc1 | 12.5 (≈ 35.3 µM) | 12.5 (≈ 35.3 µM) | 12.5 (≈ 35.3 µM) | 6.3 (≈ 17.8 µM) | 22 (≈ 62.1 µM) | –
Cc1nc2c(s1)C(=O)C=C(Nc1cccc(Cl)c1)C2=O | 12.5 (≈ 41 µM) | 6.3 (≈ 20.7 µM) | 12.5 (≈ 41 µM) | 6.3 (≈ 20.7 µM) | 5.7 (≈ 18.7 µM) | –
O=C1C=C(Nc2ccc(F)cc2)C(=O)c2scnc21 | 3.2 (≈ 11.7 µM) | 3.2 (≈ 11.7 µM) | 12.5 (≈ 45.6 µM) | 6.3 (≈ 23 µM) | 17.9 (≈ 65.3 µM) | –
Nc1nc(=O)[nH]cc1F [FLUCYTOSINE] | 1.6 (≈ 12.4 µM) | 3.2 (≈ 24.8 µM) | 3.2 (≈ 24.8 µM) | 50 (≈ 387 µM) | – | –
COC1=CC(=O)c2ncsc2C1=O | 25 (≈ 128 µM) | 12.5 (≈ 64 µM) | 50 (≈ 256 µM) | 25 (≈ 128 µM) | – | –
Cc1nc2c(s1)C(=O)C=C(Nc1ccccc1)C2=O | 12.5 (≈ 46.2 µM) | 0.4 (≈ 1.48 µM) | 6.3 (≈ 23.3 µM) | 1.6 (≈ 5.92 µM) | 1.5 (≈ 5.55 µM) | –
Cc1nc2c(s1)C(=O)C=C(Nc1ccc(C(F)(F)F)cc1)C2=O | 6.3 (≈ 18.6 µM) | 3.2 (≈ 9.46 µM) | 12.5 (≈ 36.9 µM) | 12.5 (≈ 36.9 µM) | > 100 | –
COC1=CC(=O)c2sc(C)nc2C1=O | 12.5 (≈ 59.7 µM) | 50 (≈ 239 µM) | 25 (≈ 119 µM) | 25 (≈ 119 µM) | – | –
O=C1C=C(Nc2ccc(OC(F)(F)F)cc2)C(=O)c2scnc21 | 3.2 (≈ 9.4 µM) | 3.2 (≈ 9.4 µM) | 12.5 (≈ 36.7 µM) | 12.5 (≈ 36.7 µM) | > 100 | –
CCOc1ccc(NC2=CC(=O)c3ncsc3C2=O)cc1 | 3.2 (≈ 10.7 µM) | 6.3 (≈ 21 µM) | 12.5 (≈ 41.6 µM) | 12.5 (≈ 41.6 µM) | 23.6 (≈ 78.6 µM) | –
O=C1C=C(Nc2ccccc2)C(=O)c2scnc21 | 3.2 (≈ 12.5 µM) | 6.3 (≈ 24.6 µM) | 12.5 (≈ 48.8 µM) | 6.3 (≈ 24.6 µM) | 14.7 (≈ 57.4 µM) | –
Cc1nc2c(s1)C(=O)C=C(Nc1ccc(C)c(C)c1)C2=O | 12.5 (≈ 41.9 µM) | 3.2 (≈ 10.7 µM) | 12.5 (≈ 41.9 µM) | 0.4 (≈ 1.34 µM) | 4.8 (≈ 16.1 µM) | –
CISPLATIN | – | – | – | – | – | 0.33
Cc1nc2c(s1)C(=O)C=C(Nc1ccc(Cl)cc1)C2=O | 6.3 (≈ 20.7 µM) | 25 (≈ 82 µM) | 12.5 (≈ 41 µM) | 25 (≈ 82 µM) | 3.4 (≈ 11.2 µM) | –
O=C1C=C(Nc2cccc(F)c2)C(=O)c2scnc21 | 1.6 (≈ 5.83 µM) | 3.2 (≈ 11.7 µM) | 12.5 (≈ 45.6 µM) | 12.5 (≈ 45.6 µM) | > 100 | –
Cc1nc2c(s1)C(=O)C=C(Nc1ccc(F)cc1)C2=O | 3.2 (≈ 11.1 µM) | 3.2 (≈ 11.1 µM) | 3.2 (≈ 11.1 µM) | 6.3 (≈ 21.9 µM) | 1.6 (≈ 5.55 µM) | –
